Measured values as given in publication PMC6270921, “Study on the Cytotoxic Activity of Drimane Sesquiterpenes and Nordrimane Compounds against Cancer Cell Lines” (Molecules, 2014).

How the values were obtained:
Assay in all cases: Caspase 3 activity assay (colorimetric, DEVD-pNA)
Type in all cases: cell-based, human
caspase-3 in MCF-7 cells = conditions: MCF-7, compound 50 μM; control 1% ethanol
From the text: (§1) Depletion of mitochondrial membrane potential leads to the release of apoptogenic factors, such as cytochrome c in the apoptotic cascade, and activation of caspases. Then we investigated the effects of our compounds on caspase activity. We focused on caspase-3, which is a main executor of apoptosis playing a central role in its biological processing. We analyzed the effect of treatment with the compound 1, 8 and 12 on caspase-3 activation in normal and cancer cells. […] Compound 1 increased the activity of caspase-3 by 3.4 ± 0.1, 1.4 ± 0.1 and 2.8 ± 0.1 times versus control cells in MCF-7 (black), CoN (white) and PC-3 (gray) cells, respectively. Compound 8 increased the activity of caspase 3 by 2.4 ± 0.1, 1.3 ± 0.2 and 2.7 ± 0.1 times versus control cells in MCF-7 (black), CoN (white) and PC-3 (gray) cells, respectively.
(§2) Caspase activity was measured using a colorimetric assay. Briefly, the cells exposed to compounds were collected by centrifugation at 1000 rpm and lysed with lysis buffer (1% Triton X-100, 0.32 M sucrose, 5 mM EDTA, 10 mM Tris–HCl, pH 8.0, 2 mM dithiothreitol, 1 mM PMSF, […] aprotinin, 1 mg/mL leupeptin). Thereafter, the lysates were transferred to wells in a 96-well microplate and were incubated with DEVD-pNA (final concentration 200 μM) specific for caspase-3/7, at 37 °C for 1 h. The intensity of the developed color was read at 405 nm in a microplate reader (SpectraMax, Winooski, VT, USA). The results are expressed as percentages of the control level.

caspase-3 in PC-3 cells = conditions: PC-3, compound 50 μM; control 1% ethanol
From the text: as §1, §2

caspase-3 in CoN cells = conditions: compound 50 μM, control 1% ethanol
From the text: as §1, §2

CC1(C)CCC[C@]2(C)[C@@H](C=O)C(C=O)=CC[C@@H]12 [Compound 1, polygodial]
increase of caspase-3 activity (caspase-3 in MCF-7 cells): 3.4 ± 0.1 times versus control cells
increase of caspase-3 activity (caspase-3 in PC-3 cells): 2.8 ± 0.1 times versus control cells
increase of caspase-3 activity (caspase-3 in CoN cells): 1.4 ± 0.1 times versus control cells
